From ChEMBL document CHEMBL1201862, “PubChem BioAssay data set” (2004)
Several values for one entry are separate records, joined by “and”; a condition that tells them apart may be missing. Equal values may be shown once. Activity calls are given as the source filed them.

What was measured:
[1] = molecular target: FAD-linked sulfhydryl oxidase ALR (Homo sapiens, UniProt P55789); test: inhibitors of human ALR sulfhydryl oxidase, dose response, biochemical, H2O2 detection, luminescence, cherry-pick (AID 493248)
Cytochrome P450 1A2 = molecular target: T1, Cytochrome P450 1A2 (Homo sapiens, UniProt P05177);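 further: PubChem cytochrome P450 panel assay, CYP1A2 panel member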
T1 sequence (P05177 whole entry): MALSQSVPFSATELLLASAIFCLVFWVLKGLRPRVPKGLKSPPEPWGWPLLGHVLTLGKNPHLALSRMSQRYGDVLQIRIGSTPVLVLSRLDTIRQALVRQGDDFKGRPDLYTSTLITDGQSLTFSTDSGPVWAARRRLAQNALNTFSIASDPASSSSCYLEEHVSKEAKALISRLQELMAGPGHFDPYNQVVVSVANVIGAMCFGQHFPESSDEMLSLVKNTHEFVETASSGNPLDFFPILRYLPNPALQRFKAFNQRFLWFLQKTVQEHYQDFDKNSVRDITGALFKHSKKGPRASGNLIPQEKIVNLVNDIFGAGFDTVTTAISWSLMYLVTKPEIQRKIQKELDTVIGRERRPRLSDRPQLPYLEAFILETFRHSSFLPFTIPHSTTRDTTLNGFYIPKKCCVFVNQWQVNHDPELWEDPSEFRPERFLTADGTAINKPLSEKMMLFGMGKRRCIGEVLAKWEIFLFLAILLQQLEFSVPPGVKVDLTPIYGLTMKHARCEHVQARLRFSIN

Cytochrome P450 2D6 = Cytochrome P450 2D6 (Homo sapiens, UniProt P10635);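 further: CYP2D6 member of a cytochrome P450 panel assay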
[2] = HEp-2 cell cytotoxicity, dose response, cytotoxicity control for RSV inhibitor project, HTS (AID 2410); format: functional; conditions: human respiratory syncytial virus
[3] = Luminescence Cell-Based Dose Confirmation HTS to Identify Activators of 5'UTR Stem-Loop Driven Alpha-Synuclein mRNA Translation in H4 Neuroglioblastoma Cells. [Related pubchem assays: 1829 (Project Summary), 1814 (Primary HTS)]; format: functional
[4] = Luminescence Cell-Based Dose Response HTS to Identify Activators of Luciferase Translation or Activity in H4 […] Cells. [Related pubchem assays: 1829 (Project Summary), 1814 (Primary HTS)]; format: functional
H4 = test: Luminescence Cell-Based Dose Response HTS to Identify Activators of 5'UTR Stem-Loop Driven Prion Protein mRNA Translation in H4 Neuroglioblastoma Cells. [Related pubchem assays: 1829 (Project Summary), 1814 (Primary HTS)]; format: functional; conditions: Homo sapiens
Cytochrome P450 2C19 = Cytochrome P450 2C19 (Homo sapiens, UniProt P33261); test: Cytochrome panel assay with activity outcomes. Panel member name: p450-cyp2c19 Compounds with AC50 equal or less than 10 uM are considered active; format: functional
[5] = Luminescence Cell-Based Dose Response HTS to Identify Inhibitors of 5'UTR Stem-Loop Driven Prion Protein mRNA Translation in H4 Neuroglioblastoma Cells. [Related pubchem assays: 1827 (Project Summary), 1813 (Primary HTS)]; format: functional
[6] = inhibitors of SNCA 5'UTR-driven reporter translation, confirmation, H4 neuroglioma cells, luminescence (AID 1988); format: functional, cell-based
[7] = inhibitors of firefly luciferase expression or activity, dose response, H4 neuroglioma cells, luminescence (AID 1990); format: functional, cell-based
[8] = Luminescence Cell-Based Dose Retest to Confirm Inhibitors of Cancer Stem Cells. [Related pubchem assays (depositor defined):AID2717, AID2721]; format: functional; conditions: Homo sapiens
Cytochrome P450 2C9 = Cytochrome P450 2C9 (Homo sapiens, UniProt P11712)
Cytochrome P450 3A4 = Cytochrome P450 3A4 (Homo sapiens, UniProt P08684);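 further: CYP3A4 tested as one member of a cytochrome P450 panel screen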
[9] = molecular target: T2, Rac GTPase-activating protein 1 (Homo sapiens, UniProt Q9H0H5); test: MgcRacGAP GTPase-activating activity inhibitors, confirmation, biochemical, ADP Hunter fluorescence, primary and confirmatory (AID 624330); format: functional
T2 sequence (Q9H0H5 whole entry): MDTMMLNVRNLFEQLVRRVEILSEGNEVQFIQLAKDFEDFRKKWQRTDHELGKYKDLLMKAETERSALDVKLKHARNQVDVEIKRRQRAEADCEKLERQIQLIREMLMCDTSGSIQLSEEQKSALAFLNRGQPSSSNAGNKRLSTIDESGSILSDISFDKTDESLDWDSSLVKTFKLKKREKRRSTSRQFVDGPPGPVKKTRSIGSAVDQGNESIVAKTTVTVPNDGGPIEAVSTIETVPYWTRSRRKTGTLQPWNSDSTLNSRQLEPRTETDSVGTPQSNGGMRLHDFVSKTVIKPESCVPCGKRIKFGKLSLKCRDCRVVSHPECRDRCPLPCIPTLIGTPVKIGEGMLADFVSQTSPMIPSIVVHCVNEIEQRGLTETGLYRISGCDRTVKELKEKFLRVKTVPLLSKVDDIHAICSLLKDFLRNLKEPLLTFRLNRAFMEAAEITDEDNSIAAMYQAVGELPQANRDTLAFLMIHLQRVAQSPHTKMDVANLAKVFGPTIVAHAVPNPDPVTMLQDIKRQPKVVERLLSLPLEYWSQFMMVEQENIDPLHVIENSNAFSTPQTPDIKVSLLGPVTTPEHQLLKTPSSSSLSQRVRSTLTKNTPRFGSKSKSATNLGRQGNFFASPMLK

INS1 = test: beta cell apoptosis inhibitors, cytokine rescue, dose response, luminescence, retest (AID 449756); format: functional, cell-based; conditions: Rattus norvegicus;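 further: cell death triggered by IL-1 beta plus TNF-alpha plus IFN-gamma mixture; protective hits raise ATP signal compared with cytokine alone wells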

Sequence of FAD-linked sulfhydryl oxidase ALR (P55789 whole entry): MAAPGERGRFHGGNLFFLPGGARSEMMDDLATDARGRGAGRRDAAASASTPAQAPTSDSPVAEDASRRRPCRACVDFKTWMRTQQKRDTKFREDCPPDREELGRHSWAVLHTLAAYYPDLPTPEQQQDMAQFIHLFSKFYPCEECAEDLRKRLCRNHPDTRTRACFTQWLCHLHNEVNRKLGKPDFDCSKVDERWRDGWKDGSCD
Sequence of Cytochrome P450 2C19 (P33261 whole entry): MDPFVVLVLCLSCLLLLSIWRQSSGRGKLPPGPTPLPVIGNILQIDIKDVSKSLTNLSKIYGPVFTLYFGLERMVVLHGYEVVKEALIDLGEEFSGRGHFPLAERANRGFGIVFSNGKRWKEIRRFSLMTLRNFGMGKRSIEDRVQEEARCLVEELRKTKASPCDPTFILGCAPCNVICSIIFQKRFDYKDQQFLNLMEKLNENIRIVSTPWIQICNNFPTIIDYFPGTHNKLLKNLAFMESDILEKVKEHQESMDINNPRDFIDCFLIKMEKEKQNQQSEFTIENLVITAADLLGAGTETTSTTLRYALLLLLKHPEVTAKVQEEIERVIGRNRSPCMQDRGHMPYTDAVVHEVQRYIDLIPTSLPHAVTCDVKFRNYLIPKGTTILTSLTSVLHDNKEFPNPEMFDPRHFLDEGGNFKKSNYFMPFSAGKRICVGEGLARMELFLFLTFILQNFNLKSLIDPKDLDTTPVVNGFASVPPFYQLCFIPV
Sequence of Cytochrome P450 3A4 (P08684 whole entry): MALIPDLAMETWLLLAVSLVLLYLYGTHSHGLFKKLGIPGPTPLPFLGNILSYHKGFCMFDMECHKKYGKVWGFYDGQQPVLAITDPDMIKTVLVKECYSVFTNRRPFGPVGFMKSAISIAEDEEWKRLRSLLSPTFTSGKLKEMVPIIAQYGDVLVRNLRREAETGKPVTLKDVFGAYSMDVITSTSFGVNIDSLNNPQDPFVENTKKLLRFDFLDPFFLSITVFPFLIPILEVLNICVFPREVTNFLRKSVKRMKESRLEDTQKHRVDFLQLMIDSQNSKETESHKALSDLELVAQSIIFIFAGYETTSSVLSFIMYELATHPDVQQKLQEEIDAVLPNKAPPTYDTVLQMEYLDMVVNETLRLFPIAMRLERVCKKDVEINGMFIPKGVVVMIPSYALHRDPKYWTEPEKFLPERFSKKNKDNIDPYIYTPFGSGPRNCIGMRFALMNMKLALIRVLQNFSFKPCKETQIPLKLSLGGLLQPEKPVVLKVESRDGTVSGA
Sequence of Cytochrome P450 2C9 (P11712 whole entry): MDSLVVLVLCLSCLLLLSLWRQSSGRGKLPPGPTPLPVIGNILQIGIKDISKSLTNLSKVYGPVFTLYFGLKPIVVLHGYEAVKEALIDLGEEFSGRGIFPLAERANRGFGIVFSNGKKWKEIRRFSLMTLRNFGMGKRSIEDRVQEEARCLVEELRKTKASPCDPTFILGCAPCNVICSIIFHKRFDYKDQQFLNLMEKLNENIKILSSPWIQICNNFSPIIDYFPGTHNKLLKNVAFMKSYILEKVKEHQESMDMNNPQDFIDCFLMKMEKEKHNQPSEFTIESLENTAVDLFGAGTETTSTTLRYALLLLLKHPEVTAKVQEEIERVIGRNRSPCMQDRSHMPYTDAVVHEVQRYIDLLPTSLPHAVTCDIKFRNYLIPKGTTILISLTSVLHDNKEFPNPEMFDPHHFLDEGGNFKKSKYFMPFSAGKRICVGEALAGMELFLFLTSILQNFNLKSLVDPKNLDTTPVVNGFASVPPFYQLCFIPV
Sequence of Cytochrome P450 2D6 (P10635 whole entry): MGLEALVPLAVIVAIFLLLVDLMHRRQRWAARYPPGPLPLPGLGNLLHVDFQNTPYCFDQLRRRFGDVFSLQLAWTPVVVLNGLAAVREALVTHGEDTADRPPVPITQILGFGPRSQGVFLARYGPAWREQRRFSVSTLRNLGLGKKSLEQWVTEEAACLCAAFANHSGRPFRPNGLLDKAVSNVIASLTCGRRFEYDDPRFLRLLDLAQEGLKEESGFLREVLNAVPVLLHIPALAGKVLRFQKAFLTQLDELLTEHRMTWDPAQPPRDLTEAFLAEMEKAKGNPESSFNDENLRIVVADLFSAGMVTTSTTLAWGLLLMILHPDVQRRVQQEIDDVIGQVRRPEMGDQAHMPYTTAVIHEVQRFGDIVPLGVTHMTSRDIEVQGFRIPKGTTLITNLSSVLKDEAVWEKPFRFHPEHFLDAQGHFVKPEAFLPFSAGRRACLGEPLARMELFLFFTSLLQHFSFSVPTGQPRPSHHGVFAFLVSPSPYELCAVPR

CC(C)=NNc1nc(-c2ccc(N3C(=O)CCC3=O)cc2)cs1
AC50 [1]: 0.119 µM (active)

Cc1cccc(NC(=O)CSc2nc(COc3ccccc3)nc3ccccc23)c1C
AC50 (Cytochrome P450 1A2): 12.6 µM (inconclusive)
AC50 (Cytochrome P450 2D6): 12.6 µM (inconclusive)

NC(=O)NNC1=Nc2cccc3cccc1c23
CC50 [2]: > 50 µM (active)

O=C(CN1C(=O)NC2(CCCC2)C1=O)Nc1cc(Cl)ccc1N1CCCC1
AC50 [1]: 0.244 µM (active)

COc1ccc(C(=O)N2CCN=C2SCc2cccnc2)c(OC)c1
AC50 [1]: 0.067 µM (active)

Cc1cccc(NC(=O)c2cnc3sccn3c2=O)n1
EC50 [3]: 0.125 µM (active)
EC50 [4]: 32.9 µM (active)
EC50 (H4): 63.9 µM (active)

C[C@H](CN(C)C)C(O)(c1ccccc1)c1ccccc1
AC50 (Cytochrome P450 2C19): inconclusive
AC50 (Cytochrome P450 2D6): 3.98 µM (inconclusive)

O=C(CN1CCN(c2ccccc2O)CC1)NCCCc1ccccc1
AC50 [1]: 0.301 µM (active)

CCCn1c(S)nnc1C(C)NC(=O)c1ccccc1 (stereo unspecified)
AC50 [1]: 3 µM (active)

CCCSC1=C(C#N)C(c2cccnc2)C(C(=O)OCC)=C(c2ccccc2)N1 (stereo unspecified)
AC50 (Cytochrome P450 2D6): 39.8 µM (inconclusive)

Oc1c2nc3ccccc3c-2ncn1CCC1=CCCCC1
EC50 [3]: 43.3 µM (active)
EC50 [4]: 46.6 µM (active)
EC50 (H4): 1.72 µM (active)

O=C(Nc1ccc(N2CCCCC2)cc1)C(Cl)c1ccccc1 (stereo unspecified)
EC50 [4]: 0.125 µM (active)
EC50 (H4): 12.8 µM (active)

O=C(Nc1ccc(Nc2ccccc2)cc1)c1ccco1
AC50 [1]: 5.94 µM (active)
CC50 [2]: 45.1 µM (active)

COc1ccc2c(c1)C(=O)CC(c1ccc3c(c1)OCCO3)O2 (stereo unspecified)
EC50 [3]: 7.88 µM (active)
EC50 [4]: 42 µM (active)
EC50 (H4): 13.9 µM (active)

CCN(CC)CCNC(=O)C(C)c1nn(C)c(=O)c2ccccc12 (stereo unspecified)
AC50 (Cytochrome P450 2D6): 20 µM (inconclusive)

S=C(Nc1cc(Cl)cc(Cl)c1)NC1CCN(Cc2ccccc2)CC1
EC50 [5]: > 120 µM (not active)
EC50 [6]: 11.4 µM (active)
EC50 [7]: > 120 µM (not active)
AC50 [8]: 5.23 µM (active)

O=C(O)c1nc2ccccc2nc1C(=O)O
EC50 [3]: 11.1 µM (active)
EC50 [4]: 25.5 µM (active)
EC50 (H4): > 120 µM (not active)

COC(=O)C1CC1C(NC(=O)[C@H]1CCCCN1)c1ccccc1 (stereo partly specified)
AC50 (Cytochrome P450 2C9): 20 µM (inconclusive)
AC50 (Cytochrome P450 2D6): 20 µM (inconclusive)

O=C(COC(=O)c1ccc2[nH]c3c(c2c1)CCCC3)Nc1ccccc1
EC50 [3]: 5.12 µM (active)
EC50 [4]: 41.9 µM (active)
EC50 (H4): > 120 µM (not active)

CC(Cc1ccccc1)C(=O)NCc1ccccn1 (stereo unspecified)
AC50 (Cytochrome P450 2D6): 39.8 µM (inconclusive)

N/C(CSS(=O)(=O)O)=N\[C@@H]1C[C@H]2CC[C@@H]1C2
AC50 (Cytochrome P450 2C19): inconclusive
AC50 (Cytochrome P450 2C9): 7.94 µM (inconclusive)
AC50 (Cytochrome P450 1A2): 10 µM (inconclusive)
AC50 (Cytochrome P450 2D6): 7.94 µM (inconclusive)

COc1ccccc1CNc1nc(-c2cccnc2)nc2ccccc12
AC50 (Cytochrome P450 3A4): 1.26 µM (inconclusive)
AC50 (Cytochrome P450 2D6): 25.1 µM (inconclusive)

CCNC(=O)Nc1ccccc1C(=O)OC
CC50 [2]: 27.7 µM (active)

Cn1c(-c2ccc3c(c2)OCO3)cnc1NCc1cccc(O)c1
AC50 [1]: 2.49 µM (active)

O=C(Cn1c(=S)nc2ccccn21)N1CCc2ccccc2C1
EC50 [3]: 5.67 µM (active)
EC50 [4]: 30.2 µM (active)
EC50 (H4): 10.3 µM (active)

C=CCn1c(S)nnc1C(C)NC(=O)c1cccc(C)c1 (stereo unspecified)
AC50 [1]: 4.01 µM (active)

COc1cccc(N(C(=O)c2snc(C(N)=O)c2N)C(C(=O)NCc2ccccc2)c2ccc(O)cc2)c1 (stereo unspecified)
CC50 [2]: > 50 µM (active)

COc1ccc(-c2[nH]nc(C)c2-c2ccccc2OC)c(O)c1
AC50 [1]: < 0.005 µM (active)

O=C(N/N=C\c1cccc(O)c1)c1ccncc1
AC50 (Cytochrome P450 2D6): 3.16 µM (inconclusive)

CSc1nnc2c(n1)OC(C)N(C(=O)c1ccccc1)c1ccccc1-2 (stereo unspecified)
EC50 [3]: 15.4 µM (active)
EC50 [4]: > 120 µM (not active)
AC50 (Cytochrome P450 2C9): 31.6 µM (inconclusive)
AC50 (Cytochrome P450 1A2): 10 µM (inconclusive)
EC50 (H4): > 120 µM (not active)

CCn1nc(C)c(CN2CCc3c([nH]c4ccccc34)C2C(C)(C)C)c1C (stereo unspecified)
CC50 [2]: > 50 µM (active)

CC(C(=O)Nc1ccccc1C(F)(F)F)N1CCN(C)CC1 (stereo unspecified)
IC50 [9]: 163 µM (active)

CCN(C(=O)COC(=O)/C=C/c1cnc2ccccc2n1)c1ccccc1
EC50 [3]: > 120 µM (not active)
EC50 [4]: 0.49 µM (active)
EC50 (H4): > 120 µM (not active)

Cn1c(C(=O)N2COCC2(C)C)cc2c(=O)n3ccccc3nc21
EC50 [3]: 17.2 µM (active)
EC50 [4]: 12 µM (active)
AC50 (Cytochrome P450 2C9): 5.01 µM (inconclusive)
EC50 (H4): 61.7 µM (active)

O=C(Nc1ccc(N2CCOCC2)cc1)c1cc2c(s1)CCCC2
CC50 [2]: > 50 µM (active)

COc1ccc(-n2c(=O)c(-c3ccccc3)nc3cncnc32)cc1
AC50 (Cytochrome P450 2C19; read-out: AC50): 39.8 µM (inconclusive)
AC50 (Cytochrome P450 3A4): 15.8 µM (inconclusive)
AC50 (Cytochrome P450 2D6): 25.1 µM (inconclusive)

COC(=O)C1=C(C)N(c2cc(C)cc(C)c2)/C(=C/c2ccc(O)cc2)C1=O
CC50 [2]: 18.4 µM (active)

CN(C)c1ccc(-c2cc([C@H]3[C@@H]4C=CCC[C@@]4(C)C(=O)N3Cc3ccccc3)ccc2F)cc1
AC50 [8]: 2.28 µM (active)
CC50 [2]: 13.1 µM (active)

CCOc1cc(N2CCOCC2)c(OCC)cc1NCC(=O)N1CCN(Cc2ccccc2)CC1
IC50 [9]: 64.2 µM (active)

O=C1CC(NCCC2=CCCCC2)C(=O)N1c1cccc(Cl)c1Cl (stereo unspecified)
AC50 (Cytochrome P450 3A4): 15.8 µM (inconclusive)
AC50 (Cytochrome P450 1A2): 15.8 µM (inconclusive)
AC50 (Cytochrome P450 2D6): 15.8 µM (inconclusive)

CC1CCC(NC(=O)c2cc3c(=O)n(C)c4ccccc4c3n2C)CC1 (stereo unspecified)
EC50 [3]: 7.84 µM (active)
EC50 [4]: 14.3 µM (active)
EC50 (H4): > 120 µM (not active)

CCN(CCNC(=O)C1CCN(S(=O)(=O)c2cccc3nsnc23)CC1)c1ccccc1
AC50 [1]: 4.69 µM (active)

O=C(CN1CCCCCC1)Nc1nc2ccccc2s1
IC50 [9]: 173 µM (active)

CC1=NC(C)=C(C(=O)OCCNC(=O)c2ccccc2O)C(c2ccccc2[N+](=O)[O-])/C1=C(\O)OCC1CCCO1 (stereo unspecified)
EC50 [5]: > 120 µM (not active)
EC50 [6]: 78.4 µM (active)
EC50 [7]: 17 µM (active)
AC50 (INS1): 40.6 µM (active)

Oc1c(/C=N/c2ccc(Cl)cn2)sc2ccccc12
EC50 [3]: 15.4 µM (active)
EC50 [4]: 12.3 µM (active)
EC50 (H4): 15.5 µM (active)

CCN1CCN(CC(=O)N/N=C/c2cc(Br)cs2)CC1
IC50 [9]: 94.2 µM (active)

CCOC(=O)C1=C(C)N=c2s/c(=C/c3ccc(OCC(=O)O)cc3)c(=O)n2C1c1ccc(F)cc1 (stereo unspecified)
CC50 [2]: 39.8 µM (active)

Cc1ccc(/C=c2/sc3n(c2=O)CCCN=3)o1
EC50 [4]: 0.161 µM (active)
EC50 (H4): 11.8 µM (active)

CCN(CC)CCNC(=O)c1cc(Cl)c(N)cc1OC [METOCLOPRAMIDE]
AC50 (Cytochrome P450 1A2): 15.8 µM (inconclusive)
AC50 (Cytochrome P450 2D6): 6.31 µM (inconclusive) and 15.8 µM (inconclusive)
